Measurements as given in ChEMBL document CHEMBL1201862, “PubChem BioAssay data set” (2004).
Active and inactive are the calls of the source.

Assays:
[1] = lung carcinoma cell viability loss – CellTiter-Glo luminescence, dry powder, set 17, dose response (AID 1117284); format: functional, cell-based; details: A549
[2] = biological target: Neuropeptide Y receptor type 1 (Homo sapiens, UniProt P25929); format: functional;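 further: HEK293 cells with a CNG channel challenged with NPY then isoproterenol; potency as antagonist that reverses NPY suppression of cAMP signal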
[3] = biological target: Neuropeptide Y receptor type 2 (Homo sapiens, UniProt P49146); format: functional, cell-based;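 further: HEK293 cells expressing the receptor and a CNG channel; stimulus was NPY near EC95 followed by isoproterenol to raise cAMP; antagonist potency measured as restoring cAMP signal that NPY suppresses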
[4] = biological target: Potassium voltage-gated channel subfamily KQT member 2 (Rattus norvegicus, UniProt O88943); assay: Mode of action assay - current amplitude concentration response for derivatives of ZTZ240, a potentiator of KCNQ2 potassium channels. [Related pubchem assays: 2258 (Summary assay for the KCNQ2 potentiators.), 2239 (Primary HTS assay for KCNQ2 potentiators with 305606 compounds tested, and 1644 are found to be active.)]; format: functional
[5] = biological target: Aryl hydrocarbon receptor (Homo sapiens, UniProt P35869); assay: Luminescence-based cell-based high throughput dose response assay for activators of the Aryl Hydrocarbon Receptor (AHR). [Related pubchem assays: 2796 (Primary screen (AHR activators in singlicate)), 2845 (Confirmation screen (AHR activators in triplicate)), 434939 (Counterscreen (PXR activators in triplicate)), 2804 (Summary (AHR activators))]; format: ADME
[6] = biological target: Solute carrier family 12 member 2/member 5 (Homo sapiens, UniProt P55011+Q9H2X9); assay: KCC2 and NKCC1 inhibition by rubidium flux, cell-based, NKCC1 counter-screen (AID 1734); format: functional, HEK293
[7] = Trypanosoma cruzi growth suppression in host cells – NIH3T3 host cells, beta-gal luminescence, confirmation (AID 2044); format: functional, cell-based;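 further: intracellular parasites grown in NIH/3T3 mouse fibroblasts as host cells; luminescent beta-galactosidase reporter signal from transgenic T. cruzi replicating inside host cells; inhibitors lower the luminescence signal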
[8] = biological target: T1, NADPH oxidase 1 (Homo sapiens, UniProt Q9Y5S8); format: functional, cell-based
[9] = biological target: T1, NADPH oxidase 1; assay: Luminescence-based cell-based dose response assay to identify inhibitors of NADPH oxidase 1 (NOX1).; format: functional
[10] = NIH3T3 cell viability loss – ATP luminescence, mouse fibroblasts, counter-screen, dose response (AID 2010); format: functional, cell-based;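 further: cells exposed to compound for about 90 hours before reading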
[11] = biological target: T2, Rac GTPase-activating protein 1 (Homo sapiens, UniProt Q9H0H5); assay: blockers of MgcRacGAP-driven Rac1 GTP hydrolysis – biochemical, ADP Hunter fluorescence, primary and confirmatory, confirmation (AID 624330); format: functional
T2 sequence (Q9H0H5 whole entry): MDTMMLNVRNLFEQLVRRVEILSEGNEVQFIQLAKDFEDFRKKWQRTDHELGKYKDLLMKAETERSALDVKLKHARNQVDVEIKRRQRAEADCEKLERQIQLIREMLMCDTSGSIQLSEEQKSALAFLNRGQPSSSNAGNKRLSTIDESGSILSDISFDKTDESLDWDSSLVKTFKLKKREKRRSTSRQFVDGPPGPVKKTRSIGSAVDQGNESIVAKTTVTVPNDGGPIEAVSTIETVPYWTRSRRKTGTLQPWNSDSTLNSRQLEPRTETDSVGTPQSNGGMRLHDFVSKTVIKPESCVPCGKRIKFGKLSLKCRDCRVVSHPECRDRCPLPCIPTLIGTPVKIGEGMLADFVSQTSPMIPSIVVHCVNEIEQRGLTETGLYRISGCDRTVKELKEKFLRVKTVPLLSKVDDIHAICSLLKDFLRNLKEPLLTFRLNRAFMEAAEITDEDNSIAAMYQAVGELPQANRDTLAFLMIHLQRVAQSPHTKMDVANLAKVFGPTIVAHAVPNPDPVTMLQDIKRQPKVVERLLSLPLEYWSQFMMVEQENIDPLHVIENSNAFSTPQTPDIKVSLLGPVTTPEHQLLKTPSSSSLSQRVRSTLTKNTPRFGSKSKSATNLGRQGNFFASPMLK

[12] = NIH-3T3 fibroblast cytotoxicity, dose response, cytotoxicity control, cell-based, fluorescence, Alamar Blue, secondary assay (AID 2327); format: functional;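 further: NIH-3T3 mouse fibroblasts cultured with fluconazole at 8 µg/mL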
[13] = cells; format: functional, cell-based
[14] = fluconazole-exposed Candida albicans growth modulators – fluorescence, retest, confirmation (AID 2467); format: functional, cell-based
[15] = cells; format: functional, cell-based; remark: listed apart in the source
[16] = biological target: Voltage-gated inwardly rectifying potassium channel KCNH2 (Homo sapiens, UniProt Q12809); assay: concentration-dependent hERG rescue from blockers – cell-based, thallium flux, dose response (AID 2121); format: ADME
[17] = biological target: Luciferin 4-monooxygenase (Photinus pyralis, UniProt P08659); assay: Counter Screen for Luciferase-based Assay Positives. [Related pubchem assays: 620, 618, 411 ]
[18] = test system: HT-1080; assay: HT1080 cell viability loss – fluorescence readout (AID 620); format: functional, cell-based; details: Homo sapiens
[19] = biological target: Cytochrome P450 2D6 (Homo sapiens, UniProt P10635);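 further: CYP2D6 member of a cytochrome P450 panel assay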
[20] = biological target: Cytochrome P450 2C9 (Homo sapiens, UniProt P11712)
[21] = test system: Vero; assay: mammalian cell viability reduction – secondary assay, cytotoxicity control for West Nile virus antiviral project, dose response (AID 1650); format: functional; details: Chlorocebus sabaeus
[22] = test system: Vero; assay: inhibition of WNV-induced cytopathic effect – cell-based, CPE readout (AID 1621); format: functional; details: Chlorocebus sabaeus
[23] = biological target: 5-hydroxytryptamine receptor 1E (Homo sapiens, UniProt P28566); assay: Counterscreen assay for S1P3 antagonists: Dose response cell-based high throughput screening assay to identify antagonists of the 5-Hydroxytryptamine Receptor Subtype 1E (5HT1E). [Related pubchem assays: 1429, 485 ]; format: functional
[24] = biological target: Sphingosine 1-phosphate receptor 3 (Homo sapiens, UniProt Q99500); assay: Dose response cell-based high throughput screening assay for antagonists of the Sphingosine 1-Phosphate Receptor 3 (S1P3). [Related pubchem assays: 1429, 485 ]; format: functional
[25] = biological target: Disintegrin and metalloproteinase domain-containing protein 17 (Homo sapiens, UniProt P78536); assay: exosite inhibitors of ADAM17, dose response, biochemical (AID 743260)
[26] = inhibition of ADAM10 peptide cleavage – biochemical, FRET peptide substrate, recombinant human ADAM10, selectivity assay for ADAM17 exosite inhibitor project, dose response (AID 743259);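 further: ADAM10 enzyme cleaving a FRET peptide substrate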
[27] = biological target: SUMO-activating enzyme (Homo sapiens, UniProt Q9UBT2); assay: blockers of UBC9-mediated SUMO conjugation – biochemical, AlphaScreen, SUMOylation inhibitor project, confirmation (AID 2018); format: functional
[28] = biological target: ATP-sensitive inward rectifier potassium channel 1 (Homo sapiens, UniProt P48048); assay: Kir1.1 channel inhibitor analog potency – cell-based, thallium flux, analog library, SAR follow-up (AID 435017); format: functional
[29] = viability of uninfected HEp-2 cells – cell-based, HTS, cytotoxicity control for RSV inhibitor project, dose response (AID 2410); format: functional; details: human respiratory syncytial virus
[30] = biological target: T3, Mannose-6-phosphate isomerase (Homo sapiens, UniProt P34949); assay: MPI enzyme activity inhibition – biochemical, fluorescence intensity, coupled assay, primary screen (AID 1209)
T3 sequence (P34949 whole entry): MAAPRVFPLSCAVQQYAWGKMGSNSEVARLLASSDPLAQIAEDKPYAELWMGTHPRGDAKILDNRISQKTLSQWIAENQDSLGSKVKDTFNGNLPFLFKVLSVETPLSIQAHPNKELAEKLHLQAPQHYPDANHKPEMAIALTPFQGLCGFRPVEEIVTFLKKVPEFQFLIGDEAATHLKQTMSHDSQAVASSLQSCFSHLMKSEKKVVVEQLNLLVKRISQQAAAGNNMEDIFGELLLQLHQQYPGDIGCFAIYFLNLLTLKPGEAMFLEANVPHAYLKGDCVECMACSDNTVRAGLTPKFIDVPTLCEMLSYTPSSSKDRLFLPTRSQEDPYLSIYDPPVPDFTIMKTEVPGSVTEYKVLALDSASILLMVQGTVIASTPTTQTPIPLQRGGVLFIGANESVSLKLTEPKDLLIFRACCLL

[31] = Luminescence-based dose response cell-based high throughput screening assay for cytotoxic compounds using the IEC-6 intestinal epithelial cell line. [Related pubchem assays: 1858 (Summary AID.), 1825 (Counterscreen.), 1907 (Confirmation screen.)]; format: functional
[32] = biological target: T3, Mannose-6-phosphate isomerase; assay: MPI inhibition at elevated mannose 6-phosphate – biochemical, fluorescence intensity, high mannose 6-phosphate, primary screen (AID 1220)
[33] = biological target: Photoreceptor-specific nuclear receptor (Homo sapiens, UniProt Q9Y5X4); format: functional, cell-based;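 further: CHO-S cells with Gal4-NCOR and VP16-NR2E3 two-hybrid luciferase reporter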
[34] = cells
[35] = biological target: Mucolipin-3 (Homo sapiens, UniProt Q8TDD5); assay: Dose response cell-based high-throughput screening assay for agonists of the transient receptor potential channel ML3 (TRPML3). [Related pubchem assays: 1526, 1424, 1448 ]; format: functional
[36] = biological target: Ion channel NompC (Danio rerio, UniProt Q7T1G6); assay: Fluorescence counterscreen assay for TRPML3 agonists: dose response cell-based high-throughput screening assay to identify agonists of the transient receptor potential channel N1 (TRPN1). [Related pubchem assays: 1526, 1424, 1448 ]; format: functional
[37] = biological target: T4, Long-chain-fatty-acid--AMP ligase FadD28 (Mycobacterium tuberculosis, UniProt P9WQ59); assay: Fluorescence polarization aasay to screen for inhibitors that compete for the binding of FadD28 to a bisubstrate Measured in Biochemical System Using Plate Reader - 2147-01_Inhibitor_Dose_CherryPick_Activity.; format: functional, Mycobacterium tuberculosis H37Rv
T4 sequence (P9WQ59 whole entry): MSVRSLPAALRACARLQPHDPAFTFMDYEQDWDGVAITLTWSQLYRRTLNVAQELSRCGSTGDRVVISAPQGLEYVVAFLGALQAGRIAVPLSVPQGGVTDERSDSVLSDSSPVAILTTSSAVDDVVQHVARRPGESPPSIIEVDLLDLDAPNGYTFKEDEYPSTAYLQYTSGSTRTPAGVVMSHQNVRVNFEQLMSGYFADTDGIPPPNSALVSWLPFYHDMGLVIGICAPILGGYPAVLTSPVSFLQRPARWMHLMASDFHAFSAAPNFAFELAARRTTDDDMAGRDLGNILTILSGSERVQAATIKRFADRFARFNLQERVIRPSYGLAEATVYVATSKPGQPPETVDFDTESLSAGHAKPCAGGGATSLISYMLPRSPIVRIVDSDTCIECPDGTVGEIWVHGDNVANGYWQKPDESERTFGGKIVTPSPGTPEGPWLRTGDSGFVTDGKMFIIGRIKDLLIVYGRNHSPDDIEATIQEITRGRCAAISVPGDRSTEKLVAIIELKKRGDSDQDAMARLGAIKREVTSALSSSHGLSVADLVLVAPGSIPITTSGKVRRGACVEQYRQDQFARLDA

[38] = biological target: Peroxisome proliferator-activated receptor gamma/Nuclear receptor coactivator 2 (Homo sapiens, UniProt P37231); format: functional;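 further: agonist potency for raising coactivator recruitment to the receptor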
[39] = biological target: Genome polyprotein (Hepatitis C virus, UniProt Q2Q167); assay: disruption of hepatitis C core self-association – biochemical, TR-FRET, dose response (AID 2159); parameters: species or system Hepacivirus hominis;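 further: blocks dimerization of HCV core protein measured by TR-FRET between tagged core106 pairs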
[40] = biological target: Peroxisome proliferator-activated receptor gamma/Nuclear receptor coactivator 1 (Homo sapiens, UniProt P37231); format: functional;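 further: agonist potency as compounds enhance coactivator SRC-1 recruitment to PPARgamma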
[41] = biological target: Peroxisome proliferator-activated receptor gamma/Nuclear receptor coactivator 3 (Homo sapiens, UniProt P37231); format: functional;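 further: agonist potency for raising coactivator recruitment to the receptor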

T1 sequence (Q9Y5S8 whole entry): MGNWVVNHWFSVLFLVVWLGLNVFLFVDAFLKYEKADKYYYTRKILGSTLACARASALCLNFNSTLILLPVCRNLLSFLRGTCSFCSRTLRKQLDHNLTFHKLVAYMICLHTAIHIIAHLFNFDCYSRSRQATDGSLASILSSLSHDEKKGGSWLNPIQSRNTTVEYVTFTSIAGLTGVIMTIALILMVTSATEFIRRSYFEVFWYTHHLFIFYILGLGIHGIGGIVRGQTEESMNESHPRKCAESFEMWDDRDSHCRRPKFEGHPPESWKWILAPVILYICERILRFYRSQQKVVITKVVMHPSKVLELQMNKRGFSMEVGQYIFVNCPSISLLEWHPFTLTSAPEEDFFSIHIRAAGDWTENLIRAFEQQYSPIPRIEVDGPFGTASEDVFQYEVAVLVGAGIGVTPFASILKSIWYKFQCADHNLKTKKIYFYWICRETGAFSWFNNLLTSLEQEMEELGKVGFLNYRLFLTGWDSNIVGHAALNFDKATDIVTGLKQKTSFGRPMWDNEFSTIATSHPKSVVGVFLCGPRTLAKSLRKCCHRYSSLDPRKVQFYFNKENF
5-hydroxytryptamine receptor 1E, sequence (P28566 whole entry): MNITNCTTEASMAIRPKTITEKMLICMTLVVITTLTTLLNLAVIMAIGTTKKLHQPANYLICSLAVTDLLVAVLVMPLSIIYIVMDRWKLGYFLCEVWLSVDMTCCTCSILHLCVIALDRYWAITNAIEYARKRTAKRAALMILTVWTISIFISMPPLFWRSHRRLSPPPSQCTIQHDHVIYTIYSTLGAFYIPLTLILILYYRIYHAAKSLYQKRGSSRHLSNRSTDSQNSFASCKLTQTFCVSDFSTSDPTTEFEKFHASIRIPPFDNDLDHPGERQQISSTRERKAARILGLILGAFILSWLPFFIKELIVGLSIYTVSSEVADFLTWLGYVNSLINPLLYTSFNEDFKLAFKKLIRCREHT
Cytochrome P450 2D6, sequence (P10635 whole entry): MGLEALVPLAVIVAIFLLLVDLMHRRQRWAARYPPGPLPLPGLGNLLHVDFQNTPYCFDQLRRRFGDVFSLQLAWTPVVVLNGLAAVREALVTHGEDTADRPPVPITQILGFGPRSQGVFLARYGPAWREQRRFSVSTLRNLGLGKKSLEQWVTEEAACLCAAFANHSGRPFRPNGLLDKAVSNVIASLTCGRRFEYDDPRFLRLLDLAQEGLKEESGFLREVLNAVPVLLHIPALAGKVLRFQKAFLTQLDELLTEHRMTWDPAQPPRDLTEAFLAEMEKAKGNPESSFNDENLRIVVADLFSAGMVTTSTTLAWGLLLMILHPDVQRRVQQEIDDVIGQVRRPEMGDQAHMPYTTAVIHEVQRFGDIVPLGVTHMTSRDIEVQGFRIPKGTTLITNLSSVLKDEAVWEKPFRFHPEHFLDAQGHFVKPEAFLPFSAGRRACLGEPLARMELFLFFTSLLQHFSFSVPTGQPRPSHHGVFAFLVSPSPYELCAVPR
Potassium voltage-gated channel subfamily KQT member 2, sequence (O88943 whole entry): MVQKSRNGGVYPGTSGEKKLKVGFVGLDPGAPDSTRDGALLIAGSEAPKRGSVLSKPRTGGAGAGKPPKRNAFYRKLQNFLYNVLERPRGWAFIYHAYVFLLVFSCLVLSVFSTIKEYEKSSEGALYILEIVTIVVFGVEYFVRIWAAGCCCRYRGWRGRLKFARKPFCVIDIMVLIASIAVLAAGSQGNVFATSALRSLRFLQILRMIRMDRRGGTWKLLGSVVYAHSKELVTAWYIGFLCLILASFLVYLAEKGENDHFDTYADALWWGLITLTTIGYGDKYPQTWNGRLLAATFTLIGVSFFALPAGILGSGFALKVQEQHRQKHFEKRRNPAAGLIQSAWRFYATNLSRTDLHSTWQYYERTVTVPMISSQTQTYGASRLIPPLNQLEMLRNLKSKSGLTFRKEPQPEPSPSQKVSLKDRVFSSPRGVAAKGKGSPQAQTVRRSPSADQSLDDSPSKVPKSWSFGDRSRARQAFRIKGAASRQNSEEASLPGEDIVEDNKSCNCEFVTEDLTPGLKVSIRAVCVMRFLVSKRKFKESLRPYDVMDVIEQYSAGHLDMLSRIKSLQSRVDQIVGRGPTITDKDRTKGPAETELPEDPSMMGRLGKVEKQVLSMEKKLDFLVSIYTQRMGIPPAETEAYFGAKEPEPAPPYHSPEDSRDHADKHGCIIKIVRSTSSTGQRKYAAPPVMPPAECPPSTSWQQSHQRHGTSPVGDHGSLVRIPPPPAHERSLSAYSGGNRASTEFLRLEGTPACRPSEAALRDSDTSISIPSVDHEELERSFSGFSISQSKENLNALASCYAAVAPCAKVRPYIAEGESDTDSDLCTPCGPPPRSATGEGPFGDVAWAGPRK
Luciferin 4-monooxygenase, sequence (P08659 whole entry): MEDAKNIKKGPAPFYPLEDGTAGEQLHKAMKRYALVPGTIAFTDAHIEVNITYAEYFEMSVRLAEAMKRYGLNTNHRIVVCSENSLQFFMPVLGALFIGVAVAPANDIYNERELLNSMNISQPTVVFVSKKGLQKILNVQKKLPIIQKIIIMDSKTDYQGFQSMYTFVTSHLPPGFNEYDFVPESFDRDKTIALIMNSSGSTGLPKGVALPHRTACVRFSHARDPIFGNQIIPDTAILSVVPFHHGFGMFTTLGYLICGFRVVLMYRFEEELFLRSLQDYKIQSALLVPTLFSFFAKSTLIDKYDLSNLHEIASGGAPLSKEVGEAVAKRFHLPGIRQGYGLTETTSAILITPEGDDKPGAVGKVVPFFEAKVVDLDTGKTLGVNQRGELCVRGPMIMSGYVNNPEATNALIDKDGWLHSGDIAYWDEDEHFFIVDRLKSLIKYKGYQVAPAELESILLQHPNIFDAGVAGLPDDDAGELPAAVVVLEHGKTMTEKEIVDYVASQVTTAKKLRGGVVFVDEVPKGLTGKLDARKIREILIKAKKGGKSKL
Neuropeptide Y receptor type 1, sequence (P25929 whole entry): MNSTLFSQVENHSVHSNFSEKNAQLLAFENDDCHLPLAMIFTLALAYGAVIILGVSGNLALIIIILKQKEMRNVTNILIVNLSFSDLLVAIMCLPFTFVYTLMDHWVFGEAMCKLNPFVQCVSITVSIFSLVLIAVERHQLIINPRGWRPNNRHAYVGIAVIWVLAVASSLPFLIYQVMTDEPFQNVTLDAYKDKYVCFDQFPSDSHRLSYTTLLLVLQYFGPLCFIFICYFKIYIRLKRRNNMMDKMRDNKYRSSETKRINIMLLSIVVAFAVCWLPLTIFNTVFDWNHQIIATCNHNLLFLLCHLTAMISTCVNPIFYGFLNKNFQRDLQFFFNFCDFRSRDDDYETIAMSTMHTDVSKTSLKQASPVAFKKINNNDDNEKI
Genome polyprotein, sequence (Q2Q167 whole entry): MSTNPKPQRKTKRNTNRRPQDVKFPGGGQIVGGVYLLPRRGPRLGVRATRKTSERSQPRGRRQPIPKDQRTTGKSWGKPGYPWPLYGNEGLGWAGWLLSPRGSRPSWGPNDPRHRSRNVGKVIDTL
Mucolipin-3, sequence (Q8TDD5 whole entry): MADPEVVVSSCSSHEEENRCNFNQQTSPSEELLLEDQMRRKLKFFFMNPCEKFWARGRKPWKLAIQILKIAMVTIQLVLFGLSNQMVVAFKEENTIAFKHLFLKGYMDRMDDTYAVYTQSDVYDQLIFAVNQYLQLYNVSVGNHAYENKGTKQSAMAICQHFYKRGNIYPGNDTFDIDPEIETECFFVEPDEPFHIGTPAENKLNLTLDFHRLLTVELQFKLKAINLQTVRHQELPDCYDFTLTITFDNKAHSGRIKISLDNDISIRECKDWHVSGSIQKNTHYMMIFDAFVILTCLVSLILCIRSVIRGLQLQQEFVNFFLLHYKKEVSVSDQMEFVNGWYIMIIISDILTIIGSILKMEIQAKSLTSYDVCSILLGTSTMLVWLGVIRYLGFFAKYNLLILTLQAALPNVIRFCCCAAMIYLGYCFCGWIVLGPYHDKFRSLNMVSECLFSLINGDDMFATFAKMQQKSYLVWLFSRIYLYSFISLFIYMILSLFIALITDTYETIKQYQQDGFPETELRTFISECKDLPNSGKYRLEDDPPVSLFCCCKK
Neuropeptide Y receptor type 2, sequence (P49146 whole entry): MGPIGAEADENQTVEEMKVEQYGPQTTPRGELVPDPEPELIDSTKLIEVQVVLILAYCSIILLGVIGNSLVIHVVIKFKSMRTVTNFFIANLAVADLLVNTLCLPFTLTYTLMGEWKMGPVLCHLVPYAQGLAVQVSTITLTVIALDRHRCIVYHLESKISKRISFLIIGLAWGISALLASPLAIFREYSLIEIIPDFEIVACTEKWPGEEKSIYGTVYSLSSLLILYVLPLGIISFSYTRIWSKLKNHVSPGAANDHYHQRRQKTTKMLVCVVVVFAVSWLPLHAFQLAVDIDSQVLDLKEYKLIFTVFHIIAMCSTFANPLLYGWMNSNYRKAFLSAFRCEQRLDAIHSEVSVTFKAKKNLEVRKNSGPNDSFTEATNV
Cytochrome P450 2C9, sequence (P11712 whole entry): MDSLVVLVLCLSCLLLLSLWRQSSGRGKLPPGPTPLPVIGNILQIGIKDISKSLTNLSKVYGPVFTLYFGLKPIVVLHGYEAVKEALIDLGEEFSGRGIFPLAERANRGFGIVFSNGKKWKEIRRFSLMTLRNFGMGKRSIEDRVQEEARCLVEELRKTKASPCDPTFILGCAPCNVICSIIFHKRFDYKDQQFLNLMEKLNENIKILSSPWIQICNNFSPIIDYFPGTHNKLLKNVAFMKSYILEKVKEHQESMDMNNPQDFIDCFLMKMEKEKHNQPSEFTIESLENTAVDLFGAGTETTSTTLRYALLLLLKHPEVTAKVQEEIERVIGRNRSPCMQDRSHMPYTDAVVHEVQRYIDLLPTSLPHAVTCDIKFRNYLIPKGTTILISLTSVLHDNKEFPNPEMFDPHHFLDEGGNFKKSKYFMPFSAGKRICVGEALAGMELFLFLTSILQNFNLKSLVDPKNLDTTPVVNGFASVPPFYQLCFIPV

With `C[C@H]1CN([C@@H](C)CO)S(=O)(=O)c2ccc(-c3ccc(O)cc3)cc2O[C@H]1CN(C)Cc1ccc(-c2ccccc2)cc1` the AC50 [1] was > 52 µM (inactive).
For `COc1cccc(-c2nc(-c3ccc(NC(=O)Cc4ccccc4OC)cc3)no2)c1`, the IC50 [2] was > 35 µM (not active) and the IC50 [3] was 0.733 µM (active).
In the case of `O=C(Nc1ccc(Br)nc1)c1ccc(F)c(F)c1`, the EC50 [4] is reported as 3.72 µM (active).
In the case of `COc1ccccc1NC(=O)Nc1cccnc1`, the EC50 [5] is reported as 2.25 µM (active).
With `O=C(Cn1cnc2c(nnn2Cc2ccccc2)c1=O)c1ccc(Cl)cc1` the IC50 [6] was 1.2 µM (active).
With `CCOC(=O)Nc1ccc2c(c1)Nc1ccccc1S2` the EC50 [7] was < 0.1 µM (active), the IC50 [8] was 0.915 µM (active) and the IC50 [9] was 0.054 µM (active). The EC50 [10] was > 60 µM (not active) and the IC50 [11] was 45 µM (active).
In the case of `COc1ccc(NC(=O)C(=O)NNC(=O)c2ccc(Cl)cc2Cl)cc1`, the EC50 [12] is reported as > 150 µM (inactive), the EC50 [13] is reported as > 350 µM (not active) and the EC50 [14] is reported as 2.28 µM (active). For the same compound, the EC50 [15] was > 350 µM (not active) and the EC50 [16] was 0.5 µM (active).
For `COc1ccc(-c2nsc3c(N4CCCCC4)ncnc23)cc1`, the EC50 [17] was 4.6 µM (active), the EC50 [18] was > 50 µM (not active) and the AC50 [19] was 15.8 µM (inconclusive). The AC50 [20] was 5.01 µM (inconclusive).
In the case of `CCC1CCCCN1CCCNC(=O)c1cc2c(Cl)nc3ccccc3c2s1` (stereo not drawn), the CC50 [21] is reported as 12.7 µM (active) and the IC50 [22] is reported as 8.75 µM (active).
For `COc1ccc(C(CC(=O)c2ccc(C)cc2)Nc2ccc([N+](=O)[O-])cc2)cc1` (stereo not drawn), the IC50 [23] was > 50 µM (not active), the IC50 [24] was 2.05 µM (active) and the IC50 [25] was > 69.5 µM (inactive). The IC50 [26] was 26.8 µM (inactive).
In the case of `O=[N+]([O-])c1ccc2[nH]c(CCCc3nc4cc([N+](=O)[O-])ccc4[nH]3)nc2c1`, the IC50 [27] is reported as > 100 µM (inactive) and the IC50 [28] is reported as 6.53 µM (active).
In the case of `Cc1cccc(/C=N/Nc2cc(N3CCOCC3)nc(N3CCOCC3)n2)c1`, the CC50 [29] is reported as 24.6 µM (active), the IC50 [30] is reported as > 50 µM (not active) and the EC50 [7] is reported as < 0.1 µM (active). The IC50 [31] was 0.692 µM (active), the EC50 [10] was 1.6 µM (active) and the IC50 [32] was > 50 µM (not active). The IC50 [33] was 1.88 µM (active) and the EC50 [34] was 0.077 µM (active).
With `CC1CCCC(C)N1C(=C(Cl)Cl)C(=C1SCCS1)[N+](=O)[O-]` (stereo not drawn) the EC50 [35] was 6.91 µM (active), the EC50 [36] was > 29.9 µM (not active) and the AC50 [37] was > 100 µM (inactive).
For `Cc1cc(OCC(=O)Nc2cc(-c3nn4c(C)nnc4s3)ccc2C)ccc1Cl`, the EC50 [38] was 10.1 µM (not active), the IC50 [39] was > 49.8 µM (not active) and the EC50 [40] was 9.05 µM (active). For the same compound, the EC50 [41] was 8.97 µM (active).
